Counter-ions that a name gives are not always drawn.
Legend:
Format in all cases: biochemical
[1] = biological target: T1, Recombinant human AuroraA (Homo sapiens, UniProt O14965); assay: AuroraA kinase assay (Kinase-Glo ATP consumption); design: key to Realative Inhibitory Activity AuroraA: ratio relative to ROCKII-inhibiting activity defined as 1.0 (from IC50s); settings: relative ratio to ROCKII (=1.0), based on IC50 values
T1 construct: purchased Upstate
T1 sequence (O14965 1-403): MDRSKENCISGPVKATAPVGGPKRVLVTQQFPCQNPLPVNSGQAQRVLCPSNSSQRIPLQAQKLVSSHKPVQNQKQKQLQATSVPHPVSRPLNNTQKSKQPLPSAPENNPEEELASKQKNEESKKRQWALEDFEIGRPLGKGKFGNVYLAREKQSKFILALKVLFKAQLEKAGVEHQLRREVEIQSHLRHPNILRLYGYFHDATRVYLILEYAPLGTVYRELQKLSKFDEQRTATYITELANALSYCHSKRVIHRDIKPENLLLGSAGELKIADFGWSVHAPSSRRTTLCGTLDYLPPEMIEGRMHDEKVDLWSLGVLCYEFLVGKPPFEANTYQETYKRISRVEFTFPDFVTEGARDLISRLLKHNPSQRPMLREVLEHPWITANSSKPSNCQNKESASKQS
Procedure: Recombinant human AuroraA (Upstate) was used to evaluate its activity to phosphorylate a substrate peptide (LRRASLG, Promega) was evaluated.
(§1) In a system of the total volume of 50 μL, the reaction of the above-mentioned enzyme (40 ng) was carried out at room temperature for 80 minutes in the presence of 40 mM of MOPS-NaOH (pH 7.5), 20 mM of magnesium chloride, 200 μM of the above peptide, and 1 μM of ATP. After the kinase reaction, the luminescence intensity corresponding to the amount of ATP in the reaction system was measured using a luciferase reagent (Kinase-Glo Luminescent Kinase Assay kit, Promega) with a chemiluminescence measurement apparatus (MicroLumat, Berthold Technologies). The amount of ATP consumed by the phosphorylation reaction was calculated by comparison with the luminescence intensity in the system when the kinase reaction was not carried out.
(§2) With this system, the kinase reaction was carried out in the presence of a compound at various concentrations, and the IC50 value of the compound was determined based on the resulting compound concentration-response curve for ATP consumption.
(§3) The ROCKII-inhibiting activity of a compound to be tested was defined as 1.0, and the inhibitory activities of the compound against kinases (PKA, PKG, CaMKII, and AuroraA) other than ROCKII were calculated as relative ratios to the ROCKII-inhibiting activity, based on the IC50 values calculated using the above-described evaluation system.

ROCKII (Rho-kinase) = ROCKII (Rho-kinase) (Homo sapiens, UniProt O75116); assay: Rho-kinase (ROCKII) assay according to Patent Document 1; design: key to Realative Inhibitory Activity ROCKII: relative ratio; ROCKII-inhibiting activity defined as 1.0; settings: ROCKII-inhibiting activity defined as 1.0 (reference)
ROCKII (Rho-kinase), sequence (O75116 whole entry, species assumed): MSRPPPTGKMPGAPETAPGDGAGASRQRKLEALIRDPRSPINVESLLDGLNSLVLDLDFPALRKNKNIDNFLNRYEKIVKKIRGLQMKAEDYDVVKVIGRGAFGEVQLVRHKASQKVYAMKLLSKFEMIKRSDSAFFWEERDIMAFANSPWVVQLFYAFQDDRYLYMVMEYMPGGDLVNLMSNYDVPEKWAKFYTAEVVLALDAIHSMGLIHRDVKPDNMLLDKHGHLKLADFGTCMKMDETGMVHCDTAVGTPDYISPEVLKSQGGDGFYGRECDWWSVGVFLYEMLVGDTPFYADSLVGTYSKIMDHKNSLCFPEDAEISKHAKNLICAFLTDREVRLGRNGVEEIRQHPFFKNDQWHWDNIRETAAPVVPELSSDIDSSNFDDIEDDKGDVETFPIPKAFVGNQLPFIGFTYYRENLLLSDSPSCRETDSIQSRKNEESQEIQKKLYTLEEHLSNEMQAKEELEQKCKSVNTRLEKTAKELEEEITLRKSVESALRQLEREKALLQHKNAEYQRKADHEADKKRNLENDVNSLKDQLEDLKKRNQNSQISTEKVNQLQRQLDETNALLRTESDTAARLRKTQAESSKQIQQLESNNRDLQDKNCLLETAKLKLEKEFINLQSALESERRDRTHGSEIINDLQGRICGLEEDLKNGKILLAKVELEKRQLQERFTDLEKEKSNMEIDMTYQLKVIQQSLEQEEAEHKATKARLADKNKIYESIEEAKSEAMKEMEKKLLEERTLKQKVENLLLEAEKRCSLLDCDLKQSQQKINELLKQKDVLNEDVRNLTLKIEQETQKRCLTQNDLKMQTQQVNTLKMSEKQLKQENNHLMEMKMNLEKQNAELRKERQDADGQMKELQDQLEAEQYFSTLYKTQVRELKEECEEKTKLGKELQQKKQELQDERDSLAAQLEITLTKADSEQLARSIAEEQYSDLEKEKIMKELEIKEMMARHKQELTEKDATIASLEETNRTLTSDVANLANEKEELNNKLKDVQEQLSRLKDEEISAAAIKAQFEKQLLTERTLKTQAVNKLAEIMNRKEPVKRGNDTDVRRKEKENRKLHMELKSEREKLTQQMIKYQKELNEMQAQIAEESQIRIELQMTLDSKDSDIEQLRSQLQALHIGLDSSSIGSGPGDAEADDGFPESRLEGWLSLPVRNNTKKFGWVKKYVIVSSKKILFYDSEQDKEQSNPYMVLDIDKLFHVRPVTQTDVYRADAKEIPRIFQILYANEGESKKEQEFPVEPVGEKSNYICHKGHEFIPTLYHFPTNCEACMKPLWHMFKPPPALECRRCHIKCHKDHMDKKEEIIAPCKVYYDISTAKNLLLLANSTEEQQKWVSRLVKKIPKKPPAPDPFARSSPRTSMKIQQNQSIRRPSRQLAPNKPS
Procedure: An Rho-kinase assay was carried out according to the method described in Patent Document 1, and the concentration of a compound for inhibiting Rho-kinase activity by 50% (hereinafter referred to as “IC50 value”) was calculated.
as §3

Purified rat CaMKII = assay: CaMKII kinase assay (Kinase-Glo ATP consumption); settings: relative ratio to ROCKII (=1.0), based on IC50 values
Procedure: Purified rat CaMKII (containing CaMKIIα and small amounts of β, γ, and δ isoforms, Upstate) was used to evaluate its activity to phosphorylate a substrate peptide (KKALRRQETVDAL, Upstate).
as §1, with “(33” for “(40”, “60” for “80”, “50” for “40”, “Tris-HCl (pH7.5), 10” for “MOPS-NaOH (pH 7.5), 20”, “2 mM of calcium chloride, 0.04 mg/mL of BSA, 16 μg/mL of purified bovine brain calmodulin (Sigma), 0.5 mM of DTT, 50 µM” for “200 μM”
as §2, §3

Purified bovine PKGα = biological target: T2, Purified bovine PKGα (Bos taurus, UniProt P00516); assay: PKG kinase assay (Kinase-Glo ATP consumption); settings: relative ratio to ROCKII (=1.0), based on IC50 values
T2 construct: Purified bovine PKGα (Promega); purchased Promega
T2 sequence (P00516 1-671): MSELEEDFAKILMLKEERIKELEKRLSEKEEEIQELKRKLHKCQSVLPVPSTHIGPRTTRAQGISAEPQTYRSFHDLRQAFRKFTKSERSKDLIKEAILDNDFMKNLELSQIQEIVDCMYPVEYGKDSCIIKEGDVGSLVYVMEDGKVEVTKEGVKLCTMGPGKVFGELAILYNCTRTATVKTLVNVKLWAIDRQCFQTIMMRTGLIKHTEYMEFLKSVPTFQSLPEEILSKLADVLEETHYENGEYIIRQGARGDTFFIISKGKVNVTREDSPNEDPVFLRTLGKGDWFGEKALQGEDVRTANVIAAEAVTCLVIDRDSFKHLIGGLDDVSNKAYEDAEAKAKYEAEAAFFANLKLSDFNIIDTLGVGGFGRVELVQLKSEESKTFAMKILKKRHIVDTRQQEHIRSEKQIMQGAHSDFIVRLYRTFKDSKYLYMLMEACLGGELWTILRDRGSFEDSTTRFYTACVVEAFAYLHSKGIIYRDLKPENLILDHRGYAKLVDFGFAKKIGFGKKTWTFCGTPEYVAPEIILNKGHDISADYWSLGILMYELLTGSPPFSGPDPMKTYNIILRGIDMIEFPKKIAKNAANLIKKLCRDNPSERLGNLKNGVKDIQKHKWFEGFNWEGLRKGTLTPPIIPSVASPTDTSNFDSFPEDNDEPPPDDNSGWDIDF
Procedure: Purified bovine PKGα (Promega) was used to evaluate its activity to phosphorylate a substrate peptide (RKISASEF, Promega).
as §1, with “(64” for “(40”, “Tris-HCl” for “MOPS-NaOH”, “10 μM of cGMP (Sigma), 100” for “200”
as §2, §3

[2] = biological target: T3, Purified bovine PKA (catalyst subunit) (Bos taurus, UniProt P00517); assay: PKA kinase assay (Kinase-Glo ATP consumption); settings: relative ratio to ROCKII (=1.0), based on IC50 values
T3 construct: Purified bovine PKA (catalyst subunit, Promega); purchased Promega
Procedure: Purified bovine PKA (catalyst subunit, Promega) was used to evaluate its activity to phosphorylate a substrate peptide (LRRASLG, Promega).
as §1, with “(43” for “(40”, “20” for “80”, “Tris-HCl” for “MOPS-NaOH”, “1 mg/mL of BSA, 5” for “200”
as §2, §3

Compound	Realative Inhibitory Activity AuroraA [1]	Realative Inhibitory Activity ROCKII (ROCKII (Rho-kinase))	Realative Inhibitory Activity CaMKII (Purified rat CaMKII)	Realative Inhibitory Activity PKG (Purified bovine PKGα)	Realative Inhibitory Activity PKA [2]
C[C@H](N)C(=O)N1CCCN(S(O)(O)c2cccc3cncc(F)c23)[C@@H](C)C1 [Example 3, 2-(S)-4-(L-alanyl)-1-(4-fluoroisoquinoline-5-sulfonyl)-2-methylhomopiperazine dihydrochloride]	145	1	135	11	>300
CC[C@H](N)C(=O)N1CCCN(S(O)(O)c2cccc3cncc(F)c23)[C@@H](C)C1 [Example 11, 2-(S)-4-(L-α-aminobutylyl)-1-(4-fluoroisoquinoline-5-sulfonyl)-2-methylhomopiperazine dihydrochloride]	210	1	364	79	>300

Next, values leading:

Realative Inhibitory Activity AuroraA [1]	Realative Inhibitory Activity ROCKII (ROCKII (Rho-kinase))	Realative Inhibitory Activity CaMKII (Purified rat CaMKII)	Realative Inhibitory Activity PKG (Purified bovine PKGα)	Realative Inhibitory Activity PKA [2]	Compound
>300	1	300	93	>300	2-(S)-4-(D-alanyl)-1-(4-fluoroisoquinoline-5-sulfonyl)-2-methylhomopiperazine dihydrochloride [Example 4]
>300	1	>300	30	>300	CC(C)[C@@H](N)C(=O)N1CCCN(S(O)(O)c2cccc3cncc(F)c23)[C@@H](C)C1 [Example 6, 2-(S)-1-(4-fluoroisoquinoline-5-sulfonyl)-2-methyl-4-(D-valyl)homopiperazine dihydrochloride]
244	1	>300	92	>300	CC[C@@H](N)C(=O)N1CCCN(S(O)(O)c2cccc3cncc(F)c23)[C@@H](C)C1 [Example 12, 2-(S)-4-(D-α-aminobutylyl)-1-(4-fluoroisoquinoline-5-sulfonyl)-2-methylhomopiperazine dihydrochloride]
